Reference: ChEMBL document CHEMBL5303304, “EUbOPEN Chemogenomics Library - IncuCyte” (2023)

Assays:
Type in all cases: toxicity, cell-based
U2OS = assay: Incucyte cell viability with U2OS; conditions: human, 10 µM, compound concentration 10 uM
Fibroblast = assay: Incucyte cell viability with human fibroblast; conditions: 10 µM, compound concentration 10 uM
HEK-293T = assay: Incucyte cell viability with HEK293T; conditions: human, 10 µM, compound concentration 10 uM
Also: unitless GR value; below 1 slowed growth and below 0 cell loss.

Structure (SMILES)	Growth Rate (U2OS; 0 h, replicate number 1)	Growth Rate (U2OS; 6 h, replicate number 1)	Growth Rate (U2OS; 12 h, replicate number 1)	Growth Rate (U2OS; 12 h, replicate number 2)	Growth Rate (U2OS; 18 h, replicate number 2)	Growth Rate (U2OS; 24 h, replicate number 1)	Growth Rate (U2OS; 24 h, replicate number 2)	Growth Rate (Fibroblast; 0 h, replicate number 2)	Growth Rate (HEK-293T; 12 h, replicate number 1)	Growth Rate (HEK-293T; 18 h, replicate number 1)	Growth Rate (HEK-293T; 24 h, replicate number 1)	Growth Rate (U2OS; 6 h, replicate number 2)	Growth Rate (Fibroblast; 12 h, replicate number 1)	Growth Rate (Fibroblast; 18 h, replicate number 1)	Growth Rate (Fibroblast; 24 h, replicate number 2)	Growth Rate (HEK-293T; 6 h, replicate number 1)	Growth Rate (HEK-293T; 6 h, replicate number 2)	Growth Rate (HEK-293T; 12 h, replicate number 2)	Growth Rate (HEK-293T; 18 h, replicate number 2)	Growth Rate (HEK-293T; 24 h, replicate number 2)	also measured
CP(C)(=O)c1ccc(CNC(=O)C2CCN(S(=O)(=O)c3cc(Cl)cc(Cl)c3)CC2)cc1	0.11	0.37	0.74	0.85	0.9	0.87	0.89	-0.94	0.93	0.9	0.89										Growth Rate (U2OS; 18 h, replicate number 1): 0.74
CC/C(=C(\c1ccccc1)c1ccc(OCCN(C)C)cc1)c1ccccc1.O=C(O)CC(O)(CC(=O)O)C(=O)O [TAMOXIFEN CITRATE]	-0.22	0.66	0.8	0.93	0.88	0.91	0.95		0.4	0.48	0.56	1	-0.13	-0.15	-0.21	0.14	0.13	0.48	0.45	0.52	Growth Rate (U2OS; 0 h, replicate number 2): 0.89; Growth Rate (U2OS; 18 h, replicate number 1): 0.84; Growth Rate (Fibroblast; 6 h, replicate number 1): 0.1; Growth Rate (Fibroblast; 6 h, replicate number 2): 0.32; Growth Rate (Fibroblast; 12 h, replicate number 2): -0.01; Growth Rate (Fibroblast; 18 h, replicate number 2): -0.19; Growth Rate (Fibroblast; 24 h, replicate number 1): -0.08; Growth Rate (HEK-293T; 0 h, replicate number 2): -0.98
CC1CN(CC(=O)N2CC(C)(C)c3nc(CO)c(Cc4ccc(F)cc4)cc32)C(CN2CCOCC2C)CN1 (stereo not drawn)	-0.23													0.98	0.9	0.63	0.88	0.96		0.89	Growth Rate (Fibroblast; 6 h, replicate number 1): 0.63; Growth Rate (Fibroblast; 6 h, replicate number 2): 0.4; Growth Rate (Fibroblast; 12 h, replicate number 2): 0.94; Growth Rate (Fibroblast; 18 h, replicate number 2): 0.94; Growth Rate (HEK-293T; 0 h, replicate number 2): -0.63
N[C@@H]1CCCN(c2c(/C=C3\SC(=O)NC3=O)cccc2-c2ccccc2)C1	-0.41		0.97							0.8	0.92		0.71	0.83	0.53		0.84	0.79	0.84	0.97	Growth Rate (Fibroblast; 6 h, replicate number 2): 0.19; Growth Rate (Fibroblast; 12 h, replicate number 2): 0.34; Growth Rate (Fibroblast; 18 h, replicate number 2): 0.55; Growth Rate (Fibroblast; 24 h, replicate number 1): 1; Growth Rate (HEK-293T; 0 h, replicate number 2): -0.99
Cc1nc(Nc2cnn(C3CCNCC3)c2)nc2c1N(C)C(=O)c1cc3ccccc3cc1N2C		0.19	-0.83	0.83	0.65	0.58	0.62		0.41	0.48	0.52	0.81	-0.05	-0.22	0.17	0.03	0.26	0.67	0.63	0.7	Growth Rate (U2OS; 18 h, replicate number 1): 0.36; Growth Rate (Fibroblast; 6 h, replicate number 1): -0.01; Growth Rate (Fibroblast; 6 h, replicate number 2): 0.56; Growth Rate (Fibroblast; 12 h, replicate number 2): 0.26; Growth Rate (Fibroblast; 18 h, replicate number 2): 0.06; Growth Rate (Fibroblast; 24 h, replicate number 1): -0.14
Cl.Cl.O=C1c2ccccc2C(Cc2ccncc2)(Cc2ccncc2)c2ccccc21	-0.47			0.75	0.92		0.88		0.55	0.62	0.6	0.24	-1	0.1	0.89	0.32	0.89	0.97	0.63	0.63	Growth Rate (U2OS; 0 h, replicate number 2): -0.7
COc1cc(C(=O)NC2CCN(C)CC2)ccc1Nc1ncc2c(n1)N(C1CCCC1)CC(F)(F)C(=O)N2C	-0.99	0.46	0.23	-0.13	-0.08	0.2	-0.03		0.86	0.53	0.26	0.18	0.51	0.36	0.42	0.85	-0.29	-0.06	-0.2	-0.23	Growth Rate (U2OS; 0 h, replicate number 2): 0.71; Growth Rate (U2OS; 18 h, replicate number 1): 0.12; Growth Rate (Fibroblast; 12 h, replicate number 2): 0.72; Growth Rate (Fibroblast; 18 h, replicate number 2): 0.45; Growth Rate (Fibroblast; 24 h, replicate number 1): 0.28
N#CN1CC[C@H](C(=O)Nc2nc3c(s2)CN(C(=O)CN=[N+]=[N-])CC3)C1 [8RK64]					0.94		0.89	0.48	0.99				0.41				0.66	0.81	0.93	0.94	
CN(C)[C@H]1C[C@H](n2cnc(-c3ccc(F)cn3)c2-c2ccnc3[nH]ccc23)C1	0.83			0.81	0.94		0.85	0.15				0.94	0.89	0.84			0.95				Growth Rate (HEK-293T; 0 h, replicate number 1): 0.9; Growth Rate (HEK-293T; 0 h, replicate number 2): -0.95
COP(=O)(CCC(N)C(=O)O)Oc1cccc(CC(=O)O)c1 (stereo not drawn)	0.98	0.8		0.91			0.93	-0.57	0.97	0.94	0.92		0.92	0.86							Growth Rate (Fibroblast; 0 h, replicate number 1): -1; Growth Rate (Fibroblast; 6 h, replicate number 1): 0.49; Growth Rate (Fibroblast; 24 h, replicate number 1): 0.74; Growth Rate (HEK-293T; 0 h, replicate number 1): 0.66
CCN(C)C(=O)c1ccc2c(c1)NC(=O)/C2=C(\NC1CCN(C)CC1)c1ccccc1	0.88	0.68	0.93			0.92		-0.73	0.82						0.93	0.43			0.82	0.89	Growth Rate (U2OS; 0 h, replicate number 2): 0.18; Growth Rate (Fibroblast; 6 h, replicate number 2): 0.61
